Literature values in article PMC9851200, “Multiparameter phenotypic screening for endogenous TFEB and TFE3 translocation identifies novel chemical series modulating lysosome function” (Autophagy, 2022).

Columns and labels:
Parameters in all cases: method as in original PKIS2 published data
[1] = biological target: kinases (KINOMEscan panel) (Homo sapiens, UniProt P06241); settings: kinase FYN; Published KINOMEscan; ref original PKIS2 published data; cited from earlier work
[2] = biological target: kinases (KINOMEscan panel) (Homo sapiens, UniProt P49336); settings: CDK8; Published KINOMEscan; ref original PKIS2 published data; cited from earlier work
Sequence of kinases (KINOMEscan panel) (Homo sapiens, UniProt P49336) (P49336 whole entry): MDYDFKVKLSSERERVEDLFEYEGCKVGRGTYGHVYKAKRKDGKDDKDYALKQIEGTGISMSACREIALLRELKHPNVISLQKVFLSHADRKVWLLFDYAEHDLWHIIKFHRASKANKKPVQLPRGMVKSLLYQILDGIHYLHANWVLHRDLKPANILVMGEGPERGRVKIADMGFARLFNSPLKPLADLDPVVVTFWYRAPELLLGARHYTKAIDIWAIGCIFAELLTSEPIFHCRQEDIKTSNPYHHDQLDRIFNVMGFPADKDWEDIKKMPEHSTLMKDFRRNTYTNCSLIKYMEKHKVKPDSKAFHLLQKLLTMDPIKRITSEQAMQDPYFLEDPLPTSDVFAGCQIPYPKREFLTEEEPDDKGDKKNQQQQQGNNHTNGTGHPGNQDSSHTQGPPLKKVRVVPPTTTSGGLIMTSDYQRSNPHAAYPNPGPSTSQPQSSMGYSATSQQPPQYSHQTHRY

[3] = biological target: kinases (KINOMEscan panel) (Homo sapiens, UniProt P50613); settings: kinase CDK7; Published KINOMEscan; ref original PKIS2 published data; cited from earlier work
Sequence of kinases (KINOMEscan panel) (Homo sapiens, UniProt P50613) (P50613 whole entry): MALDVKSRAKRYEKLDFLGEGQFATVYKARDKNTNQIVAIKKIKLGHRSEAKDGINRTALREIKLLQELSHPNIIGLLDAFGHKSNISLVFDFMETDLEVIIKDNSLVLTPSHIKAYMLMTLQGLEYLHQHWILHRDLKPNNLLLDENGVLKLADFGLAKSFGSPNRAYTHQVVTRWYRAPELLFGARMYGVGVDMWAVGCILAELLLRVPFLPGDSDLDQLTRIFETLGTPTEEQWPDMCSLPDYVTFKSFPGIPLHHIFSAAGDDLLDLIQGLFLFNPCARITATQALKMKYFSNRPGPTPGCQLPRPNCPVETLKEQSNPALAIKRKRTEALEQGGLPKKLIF

[4] = biological target: kinases (KINOMEscan panel) (Homo sapiens, UniProt P78368); settings: kinase CSNK1G2; Published KINOMEscan; ref original PKIS2 published data; cited from earlier work
Sequence of kinases (KINOMEscan panel) (Homo sapiens, UniProt P78368) (P78368 whole entry): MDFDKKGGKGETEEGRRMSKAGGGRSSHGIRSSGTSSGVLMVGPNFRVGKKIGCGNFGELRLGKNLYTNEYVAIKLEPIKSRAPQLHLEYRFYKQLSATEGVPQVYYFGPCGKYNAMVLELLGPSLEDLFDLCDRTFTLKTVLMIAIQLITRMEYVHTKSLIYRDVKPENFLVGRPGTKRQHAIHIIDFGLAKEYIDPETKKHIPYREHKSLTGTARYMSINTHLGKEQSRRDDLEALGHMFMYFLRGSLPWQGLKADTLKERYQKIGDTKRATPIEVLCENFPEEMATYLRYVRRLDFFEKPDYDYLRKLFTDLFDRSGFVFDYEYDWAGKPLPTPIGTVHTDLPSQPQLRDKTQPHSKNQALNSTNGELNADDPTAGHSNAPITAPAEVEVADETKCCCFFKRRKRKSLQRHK

[5] = biological target: T1, kinases (KINOMEscan panel) (Homo sapiens, UniProt Q13873); settings: kinase BMPR2; Published KINOMEscan; ref original PKIS2 published data; cited from earlier work
T1 sequence (Q13873 27-1038): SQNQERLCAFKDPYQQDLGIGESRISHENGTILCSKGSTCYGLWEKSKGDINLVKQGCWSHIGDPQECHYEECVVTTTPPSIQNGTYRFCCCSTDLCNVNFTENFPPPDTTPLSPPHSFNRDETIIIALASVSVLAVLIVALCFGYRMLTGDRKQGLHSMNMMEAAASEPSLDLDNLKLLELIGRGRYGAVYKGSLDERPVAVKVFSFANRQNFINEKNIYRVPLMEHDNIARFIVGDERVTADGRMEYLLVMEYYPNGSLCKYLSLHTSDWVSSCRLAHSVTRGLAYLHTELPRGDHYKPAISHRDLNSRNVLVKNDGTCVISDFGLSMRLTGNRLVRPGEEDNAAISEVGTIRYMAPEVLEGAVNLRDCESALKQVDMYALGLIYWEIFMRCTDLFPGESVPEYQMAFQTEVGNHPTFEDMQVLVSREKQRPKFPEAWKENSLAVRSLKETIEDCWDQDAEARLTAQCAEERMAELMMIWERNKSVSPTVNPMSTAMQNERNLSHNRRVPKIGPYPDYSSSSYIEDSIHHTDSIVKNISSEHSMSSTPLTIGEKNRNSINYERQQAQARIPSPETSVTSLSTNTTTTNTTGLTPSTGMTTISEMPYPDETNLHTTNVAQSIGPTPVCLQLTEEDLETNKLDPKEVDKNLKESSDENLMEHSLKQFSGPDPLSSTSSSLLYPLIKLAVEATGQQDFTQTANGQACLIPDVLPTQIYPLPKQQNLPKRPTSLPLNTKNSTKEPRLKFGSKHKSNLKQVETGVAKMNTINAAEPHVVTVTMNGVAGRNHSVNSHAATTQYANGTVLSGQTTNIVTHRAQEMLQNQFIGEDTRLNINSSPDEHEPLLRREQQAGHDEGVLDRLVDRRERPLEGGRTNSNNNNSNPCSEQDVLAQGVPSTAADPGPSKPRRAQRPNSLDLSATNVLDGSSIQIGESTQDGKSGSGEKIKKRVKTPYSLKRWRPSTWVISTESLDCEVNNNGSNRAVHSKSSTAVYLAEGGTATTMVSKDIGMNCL

[6] = biological target: kinases (KINOMEscan panel) (Homo sapiens, UniProt Q96SB4); settings: kinase SRPK1; Published KINOMEscan; ref original PKIS2 published data; cited from earlier work
Sequence of kinases (KINOMEscan panel) (Homo sapiens, UniProt Q96SB4) (Q96SB4 whole entry): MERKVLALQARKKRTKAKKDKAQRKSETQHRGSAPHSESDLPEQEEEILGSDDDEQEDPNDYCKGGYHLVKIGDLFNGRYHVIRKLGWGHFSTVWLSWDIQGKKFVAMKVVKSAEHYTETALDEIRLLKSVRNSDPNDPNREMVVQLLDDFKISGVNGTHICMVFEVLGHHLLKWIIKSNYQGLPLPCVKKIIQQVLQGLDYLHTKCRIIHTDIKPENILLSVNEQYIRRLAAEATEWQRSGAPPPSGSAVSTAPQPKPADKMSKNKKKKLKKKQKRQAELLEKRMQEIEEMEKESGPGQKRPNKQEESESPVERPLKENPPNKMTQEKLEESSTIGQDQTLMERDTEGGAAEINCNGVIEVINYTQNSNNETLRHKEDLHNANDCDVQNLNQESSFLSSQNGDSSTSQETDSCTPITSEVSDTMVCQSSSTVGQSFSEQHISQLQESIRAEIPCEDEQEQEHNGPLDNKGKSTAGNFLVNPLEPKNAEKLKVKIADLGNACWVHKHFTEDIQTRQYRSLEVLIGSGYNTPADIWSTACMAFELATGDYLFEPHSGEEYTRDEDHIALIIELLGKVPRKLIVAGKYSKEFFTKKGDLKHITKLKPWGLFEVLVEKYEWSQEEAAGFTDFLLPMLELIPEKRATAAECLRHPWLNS

[7] = biological target: T2, kinases (KINOMEscan panel) (Homo sapiens, UniProt Q9NRP7); settings: STK36; Published KINOMEscan; ref original PKIS2 published data; cited from earlier work
T2 sequence (Q9NRP7 1-1315): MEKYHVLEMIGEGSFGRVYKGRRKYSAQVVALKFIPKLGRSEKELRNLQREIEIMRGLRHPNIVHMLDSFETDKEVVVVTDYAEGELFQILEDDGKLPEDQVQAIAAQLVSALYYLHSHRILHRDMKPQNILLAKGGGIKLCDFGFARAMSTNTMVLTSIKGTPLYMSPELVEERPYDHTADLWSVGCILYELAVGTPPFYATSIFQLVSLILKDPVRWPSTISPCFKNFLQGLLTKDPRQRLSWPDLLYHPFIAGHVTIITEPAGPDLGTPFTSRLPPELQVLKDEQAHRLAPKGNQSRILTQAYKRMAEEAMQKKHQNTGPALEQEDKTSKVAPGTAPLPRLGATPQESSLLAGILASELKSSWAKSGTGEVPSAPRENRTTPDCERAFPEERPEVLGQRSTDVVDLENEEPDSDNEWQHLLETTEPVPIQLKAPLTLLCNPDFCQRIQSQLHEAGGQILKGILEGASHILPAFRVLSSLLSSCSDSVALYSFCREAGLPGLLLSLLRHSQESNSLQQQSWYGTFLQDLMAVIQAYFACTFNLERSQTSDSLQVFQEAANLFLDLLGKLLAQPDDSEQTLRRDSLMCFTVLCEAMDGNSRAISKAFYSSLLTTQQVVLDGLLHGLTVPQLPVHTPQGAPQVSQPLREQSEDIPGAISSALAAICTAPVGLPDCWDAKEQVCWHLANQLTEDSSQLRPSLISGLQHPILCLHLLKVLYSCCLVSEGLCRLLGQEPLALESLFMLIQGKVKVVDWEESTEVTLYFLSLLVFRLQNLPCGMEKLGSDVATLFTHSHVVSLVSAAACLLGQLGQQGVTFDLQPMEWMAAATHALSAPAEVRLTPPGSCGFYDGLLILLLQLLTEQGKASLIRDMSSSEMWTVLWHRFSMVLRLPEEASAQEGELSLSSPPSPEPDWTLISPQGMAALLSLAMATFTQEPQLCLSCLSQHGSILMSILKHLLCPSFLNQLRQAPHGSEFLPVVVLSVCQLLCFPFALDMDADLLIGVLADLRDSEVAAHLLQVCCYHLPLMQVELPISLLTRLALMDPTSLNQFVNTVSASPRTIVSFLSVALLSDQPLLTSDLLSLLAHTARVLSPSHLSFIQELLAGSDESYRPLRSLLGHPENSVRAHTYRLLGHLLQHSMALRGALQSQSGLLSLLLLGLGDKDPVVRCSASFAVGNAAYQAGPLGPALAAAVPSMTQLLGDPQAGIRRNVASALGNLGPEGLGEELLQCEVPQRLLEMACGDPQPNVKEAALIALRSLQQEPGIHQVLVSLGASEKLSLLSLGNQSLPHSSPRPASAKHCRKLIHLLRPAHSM

Sequence of kinases (KINOMEscan panel) (Homo sapiens, UniProt P06241) (P06241 whole entry): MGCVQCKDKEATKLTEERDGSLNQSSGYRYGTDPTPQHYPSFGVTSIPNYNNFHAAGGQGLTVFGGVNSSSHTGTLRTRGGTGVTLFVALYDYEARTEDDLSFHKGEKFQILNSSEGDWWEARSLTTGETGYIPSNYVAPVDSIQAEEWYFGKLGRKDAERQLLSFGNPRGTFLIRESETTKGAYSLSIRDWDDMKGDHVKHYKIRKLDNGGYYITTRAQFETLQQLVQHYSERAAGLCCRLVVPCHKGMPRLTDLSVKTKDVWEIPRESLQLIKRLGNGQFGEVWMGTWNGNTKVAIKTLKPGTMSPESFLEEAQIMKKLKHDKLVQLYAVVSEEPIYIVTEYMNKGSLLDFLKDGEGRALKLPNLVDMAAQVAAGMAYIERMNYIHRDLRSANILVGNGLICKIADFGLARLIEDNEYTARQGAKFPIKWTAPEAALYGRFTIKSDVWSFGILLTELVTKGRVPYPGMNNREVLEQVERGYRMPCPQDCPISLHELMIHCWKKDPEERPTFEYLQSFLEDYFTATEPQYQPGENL

Cc1cccc(-c2nc(Nc3ccncc3)c3ccccc3n2)n1 [NK215]
KINOMEscan FYN [1]: 13
KINOMEscan CDK8 [2]: 65
KINOMEscan CDK7 [3]: 0
KINOMEscan CSNK1G2 [4]: 20
KINOMEscan BMPR2 [5]: 0
KINOMEscan SRPK1 [6]: 0
KINOMEscan STK36 [7]: 5
